Experimental data: patent publication US8859612B2, “Use of hesperidin or one of its derivatives for making a medicine for bone formation stimulation” (Institut National de la Recherche Agronomique (INRA), priority 2002, dated 2014)

What was measured:
hPOB-tert cells [1] = experiment: Alkaline phosphatase activity in hPOB-tert cells (Example 2); assay type: cell-based, human
Method: (§1) We have tested three concentrations of hesperetin in the hPOB culture medium seeded to confluence: 1, 10 and 50 μM. Furthermore, these media lacked osteoblast differentiation factors (Vitamin D3 and dexamethasone). The control contained 0.1% DMSO (hesperetin being dissolved in the DMSO). The cells were incubated in these media for 35 days. The alkaline phosphatase activity, a marker of osteoblast differentiation, was measured on a cell lysate by using a commercial kit (Sigma No 247). The cells had been harvested at 0, 4, 8 and 12 days of incubation. The calcium content of the cells, the mineralisation marker, was quantified on a cell lysate after 21 days of incubation in the different media, with the aid of a commercial kit (Sigma No587).

hPOB-tert cells [2] = experiment: Accumulation of calcium in hPOB-tert cells (Example 2); assay type: cell-based, human; details: hesperetin 50 μM, 21 days of incubation, vs control cells (0.1% DMSO)
Method: as §1

[3] = system: oophorectomised rat (OVX) and sham-operated control rats (SH); experiment: Uterine weight (Example 1); assay type: in vivo, Wistar rats; details: 3 months; for uterine weight: hesperidin 0.5% in diet
Text: (§2) In order to study the possible impact of this molecule on bone tissue, 40 female 3 months old Wistar rats (266±2 g) were used. These animals were accustomed to a basic semi-synthetic diet for the 7 days preceding the start of the period of experimentation. At D0, 20 rats were sham-operated, the other 20 were oophorectomised. Distributed in groups of 10, they were fed on various diets for 3 months, at the end of which they were sacrificed. The last week before being killed, from D85 to D90, the rats were inspected and the urine was collected (over a period of 24 hours). Similarly, the body composition of the rats was measured. After being killed the plasma and the femurs were collected for different analyses [Femurs: resistance to rupture, densitometry; Plasma: osteocalcinemia (marker for osteoblast activity), hesperetin level: Urines: desoxypyridinoline (marker for bone resorption)]. Throughout the entire duration of the experimentation, the rats were weighed once a week. The daily quantity of food distributed to each animal was 20 g.
(§3) 10 T SH and 10 T OVX: sham-operated and oophorectomised rats receiving a standard control diet for 3 months
(§4) 10 Hp SH et 10 Hp OVX: sham-operated and oophorectomised rats receiving a standard control diet supplemented with hesperidin (0.5%) for 3 months
The uterine weight was evaluated in order to validate the castration.

[4] = system: oophorectomised rat (OVX) and sham-operated control rats (SH); experiment: Femoral biomechanics (Example 1); assay type: in vivo, Wistar rats
Text: as §2, §3, §4

[5] = system: oophorectomised rat (OVX) and sham-operated control rats (SH); experiment: Femoral densitometry (Example 1); assay type: in vivo, Wistar rats; details: for Total femoral density (T-BMD): hesperidin 0.5% in diet, 3 months
Text: as §2, §3, §4
The densities are expressed in g/cm^2.

[6] = system: oophorectomised rat (OVX) and sham-operated control rats (SH); experiment: Urinary excretion of desoxypyridinoline, marker for bone resorption (Example 1); assay type: in vivo, Wistar rats
Text: as §2, §3, §4

[7] = system: oophorectomised rat (OVX) and sham-operated control rats (SH); experiment: Plasma levels of osteocalcin, marker for osteoblast activity (Example 1); assay type: in vivo, Wistar rats; details: Hp SH vs T SH, p<0.05 (FIG. 4)
Text: as §2, §3, §4

[8] = Circulating levels of hesperetin (Example 1); assay type: in vivo, Wistar rats; details: OVX and SH rats receiving diet supplemented with hesperidin 0.5%, 3 months
Text: as §2, §4

[9] = system: six months' old oophorectomised rat; experiment: Uterine weight, six months' old rats (Example 3); assay type: in vivo, Wistar rats
Method: (§5) The experiments were performed on 48 six months' old female Wistar rats: 24 oophorectomised (OVX) and 24 sham-operated (SH).
(§6) After the surgical operation on D0, the animals were given seven days to accustom themselves to their surroundings. At the end of this period of adaptation, the rodents were distributed on the basis of weight parameters in 4 homogeneous groups and received daily for 72 days 22 g of the following diets: • group SH: 12 sham-operated rats fed with the control diet • group OVX: 12 oophorectomised rats which received the control diet • group SH Hp: 12 sham-operated rats fed with the hesperidin diet • group OVX Hp: 12 oophorectomised rats which received the hesperidin diet
When sacrificed (D90), the animals were anesthetised by an intra-peritoneal injection of chloral (Fluka: 8% solution; 0.4 ml/100 g live weight). Blood samples were collected from the abdominal aorta. The uterus was weighed.

[10] = system: six months' old oophorectomised rat; experiment: Bone mineral density of the femur, six months' old rats (Example 3); assay type: in vivo, Wistar rats; details: six months' old OVX rats, consumption of hesperidin (FIG. 11)
Method: as §5, §6
The femurs were extracted and adjacent soft tissues were removed, then the femurs were stored in 80% ethanol for the determination of bone density.

[11] = system: six months' old oophorectomised rat; experiment: Biomechanical properties of the femur, six months' old rats (Example 3); assay type: in vivo, Wistar rats; details: hesperidin diet (FIG. 14)
Method: as §5, §6
The mechanical properties of the femur of the individuals of the different groups of animals were analysed.

COc1ccc([C@@H]2CC(=O)c3c(O)cc(O)cc3O2)cc1O [hesperetin, (S)-2,3-dihydro-5,7-dihydroxy-2-(3-hydroxy-4-methoxyphenyl)-4H-1-benzopyran-4-one]
alkaline phosphatase activity (osteoblast differentiation) (hPOB-tert cells [1]; hesperetin 1 μM, vs untreated cells, no vitamin D3 or dexamethasone): lacks effect | alkaline phosphatase activity (osteoblast differentiation) (hPOB-tert cells [1]; hesperetin 10 μM, from the 4th day onwards, plateau on the 8th day): increase | alkaline phosphatase activity (osteoblast differentiation) (hPOB-tert cells [1]; hesperetin 50 μM, from the 4th day onwards, plateau on the 8th day): most efficacious | calcium deposition (calcium content of the cells) (hPOB-tert cells [2]): stimulate calcium deposition

COc1ccc([C@@H]2CC(=O)c3c(O)cc(O[C@@H]4O[C@H](CO[C@@H]5O[C@@H](C)[C@H](O)[C@@H](O)[C@H]5O)[C@@H](O)[C@H](O)[C@H]4O)cc3O2)cc1O [hesperidin, (S)-7-[[6-0-(6-deoxy-α-L-mannopyranosyl)-β-D-glucopyranosyl]oxy]-2,3-dihydro-5-hydroxy-2-(3-hydroxy-4-methoxyphenyl)-4H-1-benzopyran-4-one]
uterine weight ([3]; Hp OVX: oophorectomised rats, ** p<0.01 vs SH): 238.6 ± 2.23** mg | uterine weight ([3]; Hp SH: sham-operated rats): 659.4 ± 8.96 mg | uterotrophic effect ([3]; uterine weight not modified by consumption of hesperidin 0.5% in diet): lack a uterotrophic effect | Femoral resistance to rupture ([4]; Hp SH: sham-operated rats, hesperidin 0.5% in diet, 3 months): 106.3 ± 5.3 N | femoral resistance to rupture, effect in words ([4]; oophorectomised rats, diet supplemented with hesperidin): tendency to improve | Total femoral density (T-BMD) ([5]; Hp OVX: oophorectomised rats): 0.2445 g/cm^2 | Total femoral density (T-BMD) ([5]; Hp SH: sham-operated rats): 0.2501 g/cm^2 | diaphyseal femoral density, effect in words ([5]; both OVX and SH rats vs groups on standard diet, p<0.05): significantly improves | metaphyseal femoral density (M-BMD) ([5]; intact or oophorectomised rats on hesperidin diet vs standard diet (FIG. 2)): increase | metaphyseal femoral density (M-BMD), mineralisation ([5]; non-castrated animals, by comparison with T SH): improvement of the mineralisation | total femoral density, effect on demineralisation induced by oophorectomy ([5]; oophorectomised rats, consumption of hesperidin): completely prevents this demineralisation | total femoral density, effect in words ([5]; sham-operated (SH) rats, consumption of hesperidin): significantly improves | urinary excretion of DPD ([6]; Hp SH rats in comparison with T SH): significantly diminished | urinary excretion of desoxypyridinoline: increase of bone resorption induced by oophorectomy ([6]; OVX rats, consumption of hesperidin (FIG. 3)): prevented | plasma levels of osteocalcin (bone accretion) [7]: stimulates bone accretion | mean plasma level of aglycone (hesperetin) [8]: 12.53 ± 2.48 µM | uterine atrophy following ovarian ablation ([9]; OVX rats, consumption of hesperidin (FIG. 10)): not prevented | uterotrophic effect ([9]; six months' old rats, hesperidin diet (FIG. 10)): lacks a uterotrophic effect | demineralisation of the femur (total bone mineral density) [10]: prevented (at least partially) | biomechanical properties of the femur (femoral load at rupture) ([11]; OVX Hp: six months' old oophorectomised rats): preserve them | biomechanical properties of the femur (femoral load at rupture) ([11]; intact (sham-operated) six months' old rats): improve them
